Experimental data from patent US20160058872A1, “IMIDE-BASED MODULATORS OF PROTEOLYSIS AND ASSOCIATED METHODS OF USE” (Arvinas, Inc., priority 2014, published 2016).

System: c-Myc
Assay: c-Myc protein level by immunoblot in BL cell lines
Type: cell-based
Conditions: 24 hours, washout
Procedure: Cultured cells were collected in lysis buffer containing 40 mM HEPES (pH 7.4), 140 mM NaCl, 2.5 mM EDTA, 1% NP-40, 0.1% SDS and protease inhibitor cocktail. After 10 minutes of centrifugation (14000 rpm), supernatant was collected for protein concentration determination by BCA method and subjected for immunoblotting by standard protocol. Western blot results were visualized using Bio-Rad Clarity ECL Western Blotting Substrate on Bio-Rad ChemiDoc™ MP imaging system.
A separate set of cells were treated in the same manner, except that DMSO was used in place of the inhibitor. Following treatment, cell lysates were collected and analyzed by immunoblot for c-Myc and Actin.
Cells were re-seeded and incubated without inhibitor for 0 hr, 0.5 hr, 1.0 hr, 2.0 hr, 3.0 hr, 4.0 hr, and 6.0 hr. Cell lysates were then collected at the various time points and analyzed by immunoblot for c-Myc and Actin. In a parallel control experiment, NAMALWA cells were treated in the same manner, except DMSO was used in place of JQ1.
After treatment, the cells were either lysed (to evaluate the suppression of c-Myc by the inhibitors) or washed to remove the inhibitor, re-seeded, and incubated without inhibitor for 4.0 hours (to evaluate the reversibility of c-Myc suppression). Cell lysates were collected and analyzed by immunoblot for c-Myc and Actin.
Following treatment, cell lysates were collected and analyzed by immunoblot for BRD4, c-Myc and Actin.
Cells were re-seeded in fresh medium and incubated without any compound for 0 hr, 2.0 hr, 4.0 hr, 6.0 hr, and 24.0 hr. In a parallel control experiment, cells were treated in the same manner, except DMSO was used in place of inhibitor. Lysates were collected and analyzed by immunoblot for BRD4, c-Myc, and Actin.

## Cc1sc2c(c1C)C(c1ccc(Cl)cc1)=N[C@@H](CC(=O)OC(C)(C)C)c1nnc(C)n1-2 [JQ1]
NAMALWA, 1.0 μM
  time to recovery of c-Myc to control level after removal: ≤ 4 h
NAMALWA, after 1000 nM
  time to return of c-Myc to control level post removal: ≤ 3.0 h
Ramos, after 1000 nM
  time to significant c-Myc increase after removal: ≤ 4.0 h
